What is called inhibition is the relative decrease from the control value, in per cent.

Like-named read-outs stand apart in the source and are kept apart here. Where only a bound is given, the exact number is not on record here.

The target in one series is T1, OX1 (Homo sapiens, UniProt O43613).
T1 construct: expressed in transfected cells; host or cells: CHO (CHO-OX1, kept under selection antibiotic)
T1 sequence (O43613 1-425): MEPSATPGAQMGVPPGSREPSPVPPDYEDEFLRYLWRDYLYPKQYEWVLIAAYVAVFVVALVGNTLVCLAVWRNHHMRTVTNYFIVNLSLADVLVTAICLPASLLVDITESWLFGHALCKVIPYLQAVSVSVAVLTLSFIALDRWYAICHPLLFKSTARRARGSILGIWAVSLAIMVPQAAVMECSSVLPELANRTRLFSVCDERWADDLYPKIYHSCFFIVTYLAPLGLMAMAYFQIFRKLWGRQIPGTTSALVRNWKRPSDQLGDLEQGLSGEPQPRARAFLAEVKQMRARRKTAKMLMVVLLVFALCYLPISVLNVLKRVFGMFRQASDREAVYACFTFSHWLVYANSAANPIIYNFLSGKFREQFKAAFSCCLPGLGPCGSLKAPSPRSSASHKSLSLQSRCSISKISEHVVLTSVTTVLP
The series can be described thus: Orexin receptor cell-based functional assay, [Ca2+]i by FLIPR, CHO-OX1 cells. In short, it runs like this:
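CHO cells expressing human OX1 or OX2 loaded with calcium dye plus 2.5 mM probenecid at 37° C (calcium4, 30 min, or calcium6, 2 h), then exposed to compounds (0.1 nM-10 μM) for 30 min. Intracellular Ca2+ measured on FLIPR; antagonist format.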

In another series the target is T2, OX2 (Homo sapiens, UniProt O43614).
T2 construct: expressed in transfected cells; host or cells: CHO (CHO-OX2, kept under selection antibiotic)
T2 sequence (O43614 1-444): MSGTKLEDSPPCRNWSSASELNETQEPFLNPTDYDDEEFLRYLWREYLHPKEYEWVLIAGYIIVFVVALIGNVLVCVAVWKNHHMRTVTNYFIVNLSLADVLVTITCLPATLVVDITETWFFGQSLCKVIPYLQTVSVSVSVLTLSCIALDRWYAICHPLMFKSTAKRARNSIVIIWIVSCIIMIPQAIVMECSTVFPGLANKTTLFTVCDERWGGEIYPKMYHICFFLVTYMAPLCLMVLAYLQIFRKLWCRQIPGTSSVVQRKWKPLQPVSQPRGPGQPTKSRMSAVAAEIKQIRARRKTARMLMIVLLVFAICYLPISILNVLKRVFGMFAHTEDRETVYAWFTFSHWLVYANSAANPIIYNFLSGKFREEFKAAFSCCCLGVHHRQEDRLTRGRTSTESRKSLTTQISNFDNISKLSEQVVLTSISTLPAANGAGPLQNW
The series can be described thus: Orexin receptor cell-based functional assay, [Ca2+]i by FLIPR, CHO-OX2 cells. As to the method: Measurement of [Ca^2+]i using a FLIPR: CHO—OX1 or CHO—OX2 cells are seeded into black-walled clear-base 384-well plates (Costar) at a density of 20,000 cells per well in F12-K medium supplemented with 10% FBS and selection antibiotic (500 ug/ml G418 or 15 ug/ml Blasticidin) and cultured overnight. The cells are incubated with equal volume of calcium4 loading buffer (Molecular Devices, Inc.) containing 2.5 mM probenecid at 37° C. for 30 min, followed by putative OX1 or OX2 receptor antagonists (dose-range 0.1 nM-10 μM) for another 30 min.
The cells are incubated with equal volume of calcium6 loading buffer (Molecular Devices, Inc.) containing 2.5 mM probenecid at 37° C. for 2 h, followed by test compounds (dose-range 0.1 nM-10 μM) for another 30 min.

Another series has as its target T3, CYP3A4 (Homo sapiens, UniProt P08684).
T3 construct: pre-incubated with human liver microsomes and NADPH; from tissue; host or cells: human liver microsomes
Kind of series: Cytochrome P450 inhibition assay (midazolam hydroxylation). It counts as in vitro ADME. The note with it: human, human liver microsomes, probe midazolam (hydroxylation to 1′-hydroxymidazolam), 10 μM test compound, midazolam at approximately its Km. A digest of the protocol: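 Human liver microsomes; CYP3A4 activity as midazolam 1′-hydroxylation with substrate near Km, with or without 10 μM test compound, read as percent inhibition. For time-dependent inhibition, parallel samples were preincubated 30 min with NADPH before substrate, and percent inhibition compared with non-preincubated samples.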
A general note: Liver microsomes are vesicles of endoplasmic reticulum, rich in cytochrome P450 enzymes.

The mark [1] stands for this setting: CHO-OX1 cells, [Ca2+]i by FLIPR, antagonist dose-range 0.1 nM-10 μM, EC90 of OXA, read-out: OX1.
The mark [2] stands for this setting: [Ca2+]i by FLIPR, antagonist dose-range 0.1 nM-10 μM, EC90 of OXA, read-out: OX2.

T3 sequence (P08684 whole entry): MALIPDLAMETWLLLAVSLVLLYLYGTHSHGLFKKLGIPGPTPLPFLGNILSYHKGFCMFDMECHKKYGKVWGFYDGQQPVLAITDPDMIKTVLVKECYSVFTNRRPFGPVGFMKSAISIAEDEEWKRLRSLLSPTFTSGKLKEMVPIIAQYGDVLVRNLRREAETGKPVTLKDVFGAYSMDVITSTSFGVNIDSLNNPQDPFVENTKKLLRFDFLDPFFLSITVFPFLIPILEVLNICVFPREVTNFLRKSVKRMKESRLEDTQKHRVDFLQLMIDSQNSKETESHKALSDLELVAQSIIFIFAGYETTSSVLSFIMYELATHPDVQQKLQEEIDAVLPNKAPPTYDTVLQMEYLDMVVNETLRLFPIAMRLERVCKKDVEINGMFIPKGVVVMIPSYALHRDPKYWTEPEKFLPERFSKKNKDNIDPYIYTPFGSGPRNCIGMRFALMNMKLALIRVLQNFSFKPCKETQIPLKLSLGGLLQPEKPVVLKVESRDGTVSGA

Turning to `Cc1ccc(-n2cccn2)c(C(=O)N2CCC[C@@H](C)[C@H]2CNc2ccc(C(F)(F)F)cn2)c1` (racemic) [Example 120, rac-cis-(3-Methyl-2-(((5-(trifluoromethyl)pyridin-2-yl)amino)methyl)piperidin-1-yl)(5-methyl-2-(1H-pyrazol-1-yl)phenyl)methanone], the IC50 amounted to 0.003 µM at OX1 (Table 2, CHO-OX1 cells, EC90 of OXA, read-out: IC50 Bioactivity OX1) and 500 nM on OX2 (Table 2, EC90 of OXA, read-out: IC50 Bioactivity OX2).
As to `Cc1ccc(-n2nccn2)c(C(=O)N2CC3CCCC3C2CNc2nc3cc(Cl)ccc3o2)c1` (stereo not shown) [Example A68, (1-(((5-Chlorobenzo[d]oxazol-2-yl)amino)methyl)hexahydrocyclopenta[c]pyrrol-2(1H)-yl)(5-methyl-2-(2H-1,2,3-triazol-2-yl)phenyl)methanone], the IC50 worked out at 0.25 µM at OX1 (setting [1]) and 3360 nM at OX2 (setting [2]).
The corresponding values for `Cc1ccc(-c2cnn(C)c2)c(C(=O)N2CC3CCCC3C2CNc2nc3cc(Cl)ccc3o2)c1` (stereo not shown) [Example A70, (1-(((5-Chlorobenzo[d]oxazol-2-yl)amino)methyl)hexahydrocyclopenta[c]pyrrol-2(1H)-yl)(5-methyl-2-(1-methyl-1H-pyrazol-4-yl)phenyl)methanone] are 2.5 µM and 7800 nM.
The corresponding values for `Cc1ccc(-n2cnc(C(F)(F)F)n2)c(C(=O)N2CC3CCCC3C2CNc2nc3cc(Cl)ccc3o2)c1` (stereo not shown) [Example A72, (1-(((5-Chlorobenzo[d]oxazol-2-yl)amino)methyl)hexahydrocyclopenta[c]pyrrol-2(1H)-yl)(5-methyl-2-(3-(trifluoromethyl)-1H-1,2,4-triazol-1-yl)phenyl)methanone] are 2.4 µM and 3900 nM.
As to `C[C@@H]1CCCN(C(=O)c2ccc(F)cc2-c2ncccn2)[C@@H]1CNc1ccc(C(F)(F)F)cn1` [Example A234, (4-Fluoro-2-(pyrimidin-2-yl)phenyl)((2S,3R)-3-methyl-2-(((5-(trifluoromethyl)pyridin-2-yl)amino)methyl)piperidin-1-yl)methanone], the values for the IC50 on OX1 (setting [1]) and on OX2 (setting [2]) were 0.011 µM and > 5000 nM, respectively.
On to `Cc1cccc(-c2ncccn2)c1C(=O)N1CCC[C@@H](C)[C@H]1CNc1ncc(C(F)(F)F)cn1` [Example A307, ((2S,3R)-3-Methyl-2-(((5-(trifluoromethyl)pyrimidin-2-yl)amino)methyl)piperidin-1-yl)(2-methyl-6-(pyrimidin-2-yl)phenyl)methanone], for which the inhibition at 10 µM at CYP3A4 turned out to be 46%. Further, the IC50 at OX1 (setting [1]) amounted to 0.25 µM.
In turn, `C[C@@H]1CCCN(C(=O)c2cc(F)ccc2-n2nccn2)[C@@H]1CNc1ccc(C(F)(F)F)cn1` [Example A310] showed an inhibition at 10 µM on CYP3A4 of 75%. The compound also returned an IC50 against OX1 (OX1 (μM)) of 0.003 µM.
Take `C[C@@H]1CCCN(C(=O)c2ccccc2-n2nccn2)[C@@H]1CNc1ncc(C(F)(F)F)cn1` [Example A313, (2-(2H-1,2,3-Triazol-2-yl)phenyl)((2S,3R)-3-methyl-2-(((5-(trifluoromethyl)pyrimidin-2-yl)amino)methyl)piperidin-1-yl)methanone]: the inhibition at 10 µM against CYP3A4 came to 60%. Further, at OX1 (setting [1]), the IC50 turned out to be 0.005 µM.
For the compound `C[C@@H]1CCCN(C(=O)c2ccccc2-n2nccn2)[C@@H]1CNc1ccc(C(F)(F)F)cn1` [Example A314, (2-(2H-1,2,3-Triazol-2-yl)phenyl)((2S,3R)-3-methyl-2-(((5-(trifluoromethyl)pyridin-2-yl)amino)methyl)piperidin-1-yl)methanone], the inhibition at 10 µM at CYP3A4 turned out to be 76%. Moreover, on OX1 (setting [1]), the IC50 worked out at 0.002 µM.
The corresponding values for `C[C@@H]1CCCN(C(=O)c2ccccc2-c2ncccn2)[C@@H]1CNc1ccc(C(F)(F)F)cn1` [Example A316, ((2S,3R)-3-Methyl-2-(((5-(trifluoromethyl)pyridin-2-yl)amino)methyl)piperidin-1-yl)(2-(pyrimidin-2-yl)phenyl)methanone] are 63% and 0.004 µM.
The corresponding values for `C[C@@H]1CCCN(C(=O)c2ccccc2-c2ncccn2)[C@@H]1CNc1ncc(C(F)(F)F)cn1` [Example A317, ((2S,3R)-3-Methyl-2-(((5-(trifluoromethyl)pyrimidin-2-yl)amino)methyl)piperidin-1-yl)(2-(pyrimidin-2-yl)phenyl)methanone] are 46% and 0.001 µM.
Consider `Cc1ccc(-n2nccn2)c(C(=O)N2CCC[C@@H](C)[C@H]2CNc2ccc(C(F)(F)F)cn2)c1F` [Example A318, (2-Fluoro-3-methyl-6-(2H-1,2,3-triazol-2-yl)phenyl)((2S,3R)-3-methyl-2-(((5-(trifluoromethyl)pyridin-2-yl)amino)methyl)piperidin-1-yl)methanone], for which 10 µM produced 79% inhibition at CYP3A4. Besides, the IC50 at OX1 (setting [1]) amounted to 0.007 µM.
`Cc1ccc(-n2nccn2)c(C(=O)N2CCC[C@@H](C)[C@H]2CNc2ncc(C(F)(F)F)cn2)c1F` [Example A319, (2-Fluoro-3-methyl-6-(2H-1,2,3-triazol-2-yl)phenyl)((2S,3R)-3-methyl-2-(((5-(trifluoromethyl)pyrimidin-2-yl)amino)methyl)piperidin-1-yl)methanone] had an inhibition at 10 µM against CYP3A4 of 53%. In addition, the IC50 on OX1 (setting [1]) came out at 0.006 µM.
The corresponding values for `C[C@@H]1CCCN(C(=O)c2cc(C#N)ccc2-n2nccn2)[C@@H]1CNc1ncc(C(F)(F)F)cn1` [Example A322, 3-((2S,3R)-3-Methyl-2-(((5-(trifluoromethyl)pyrimidin-2-yl)amino)methyl)piperidine-1-carbonyl)-4-(2H-1,2,3-triazol-2-yl)benzonitrile] are 40% and 0.011 µM.
As to `C[C@@H]1CCCN(C(=O)c2cc(C#N)ccc2-c2ncccn2)[C@@H]1CNc1ncc(C(F)(F)F)cn1` [Example A323, 3-((2S,3R)-3-Methyl-2-(((5-(trifluoromethyl)pyrimidin-2-yl)amino)methyl)piperidine-1-carbonyl)-4-(pyrimidin-2-yl)benzonitrile], 10 µM produced 39% inhibition at CYP3A4. In addition, on OX1 (setting [1]), the IC50 came out at 0.01 µM.
On to `C[C@@H]1CCCN(C(=O)c2cc(F)cc(F)c2-n2nccn2)[C@@H]1CNc1ccc(C(F)(F)F)cn1` [Example A328, (3,5-Difluoro-2-(2H-1,2,3-triazol-2-yl)phenyl)((2S,3R)-3-methyl-2-(((5-(trifluoromethyl)pyridin-2-yl)amino)methyl)piperidin-1-yl)methanone], for which, on OX2 (setting [2]), the IC50 was > 5000 nM.
Compound `Cc1ccc(C(=O)N2CCC[C@@H](C)[C@H]2CNc2ccc(C(F)(F)F)cn2)c(-c2ncccn2)c1F` [Example A358, (3-fluoro-4-methyl-2-(pyrimidin-2-yl)phenyl)((2S,3R)-3-methyl-2-(((5-(trifluoromethyl)pyridin-2-yl)amino)methyl)piperidin-1-yl)methanone] returned an inhibition at 10 µM at CYP3A4 of 83%. Also, on OX1 (setting [1]), the IC50 was 0.005 µM.
Regarding `Cc1cc(-n2nccn2)c(C(=O)N2CCC[C@@H](C)[C@H]2CNc2ccc(C(F)(F)F)cn2)cc1F` [Example A360, (5-Fluoro-4-methyl-2-(2H-1,2,3-triazol-2-yl)phenyl)((2S,3R)-3-methyl-2-(((5-(trifluoromethyl)pyridin-2-yl)amino)methyl)piperidin-1-yl)methanone], the IC50 at OX2 (setting [2]) was > 5000 nM.

These data come from patent US9440982B2 (Eolas Therapeutics, Inc., priority 2012, dated 2016).
